Read-outs that look alike come from different tables or passages of the source. *1 amine or outer side, *2 acyl side, *3 side chain or, on linkers, in order; H or OH if unused. Where a SMILES comes first, the peptide text is derived from it. Bridges are numbered along the chain shown (N, C = ends). Side-chain parts run from the residue outwards. [ ]: non-standard residue; d: D form. The star is where a group is joined. X2 = O=C(O)CN1CCN(CC(=O)O)CCN(CC(=O)N[C@@H](CCC(=O)NC[C@H](O)[C@@H](O)[C@H](O)[C@H](O)CO)C(=O)*)CCN(CC(=O)O)CC1; DOTA(In) = O=C1CN2CCN3CCN(CC(=O)*)CCN(CC2)CC(=O)[O][In]([O]1)[O]C(=O)C3; NH(1-deoxy-D-glucityl) = OC[C@@H](O)[C@@H](O)[C@H](O)[C@@H](O)CN*; Pro(trans-4-NH2) = O=C([C@@H]1C[C@@H](N[*:3])CN1[*:1])[*:2]; DOTA = O=C(O)CN1CCN(CC(=O)O)CCN(CC(=O)*)CCN(CC(=O)O)CC1; Trp(5-Cl) = N[C@@H](Cc1c[nH]c2ccc(Cl)cc12)C(=O)O; Pyridine(2,6-diCH2) = c1cc(C[*:1])nc(C[*:2])c1; Glutaryl = O=C(CCCC(=O)[*:2])[*:1]; X6 = c1cc(CSCCN[*:2])nc(C[*:1])c1; Hyp = O=C(O)[C@@H]1C[C@@H](O)CN1; X1 = O=C(CN1CCC(N[*:1])CC1)[*:2]; hArg = N=C(N)NCCCC[C@H](N)C(=O)O; Suc = O=C(CCC(=O)[*:2])[*:1]; Api = NC1(C(=O)O)CCNCC1; Thp = NC1(C(=O)O)CCOCC1
Legend:
[1] = molecular target: T1, GIPR (CHO-K1-hGIPR cells) (Homo sapiens, UniProt P48546); experiment: FACS binding assay
T1 construct: host or cells: CHO-K1
T1 sequence (P48546 22-466): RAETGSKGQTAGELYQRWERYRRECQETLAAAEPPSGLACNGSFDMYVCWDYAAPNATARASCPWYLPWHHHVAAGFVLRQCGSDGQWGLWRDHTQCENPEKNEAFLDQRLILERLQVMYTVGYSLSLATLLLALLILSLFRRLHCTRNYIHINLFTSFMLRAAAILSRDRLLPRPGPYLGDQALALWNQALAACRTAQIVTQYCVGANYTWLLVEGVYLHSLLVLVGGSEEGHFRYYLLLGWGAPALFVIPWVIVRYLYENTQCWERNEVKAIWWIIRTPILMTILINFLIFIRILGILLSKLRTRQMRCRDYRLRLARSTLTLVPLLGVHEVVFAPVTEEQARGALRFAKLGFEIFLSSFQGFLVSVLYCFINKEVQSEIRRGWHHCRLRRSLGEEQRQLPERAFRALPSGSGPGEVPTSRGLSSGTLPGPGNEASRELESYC
Method in brief: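 Median fluorescence in the APC channel, measured on washed CHO-K1 cells overexpressing human GIPR, was fitted by four-parameter logistic regression against peptide concentration to yield EC50 or IC50 values. Secondary labelling used APC-streptavidin (1 μg/mL, 30 min, ice).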

[2] = molecular target: T2, human GIP receptor (bioGIPR) (Homo sapiens, UniProt P48546); experiment: Surface plasmon resonance (SPR) based binding assay; conditions: Single Cycle Kinetic mode, 25° C.; for t1/2 Category: SPR dissociation half-life; for Kd: SPR, 1:1 Langmuir binding model, read-out: pKD Category (converted)
T2 construct: Biotinylate extracellular of the human GIP receptor (bioGIPR, Proteros biostructures GmbH, lot #02/2b); purchased Proteros biostructures GmbH lot #02/2b
T2 sequence (P48546 22-138 limits assumed): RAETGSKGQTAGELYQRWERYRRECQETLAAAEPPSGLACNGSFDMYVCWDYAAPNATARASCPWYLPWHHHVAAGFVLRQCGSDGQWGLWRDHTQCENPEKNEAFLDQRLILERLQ
Method in brief: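 Binding was measured at 25 °C by single-cycle kinetics against a reference flow cell, with blank-run and drift correction, after capturing biotinylated GIPR extracellular domain to ~3500 RU. Running buffer: HBST, 0.1% DMSO. A 1:1 Langmuir model gave kinetic rates, KD, t1/2 and pKD.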

[3] = competition with 20 nM GIP-057, 4° C., 1 hour, read-out: pIC50 Category (converted)

IC50 [1, 3] [nM] | t1/2 Category [2] | Kd [2] [nM] | IC50 ([1]; competition with 20 nM GIP-057, 4° C. for 1 hour, read-out: pIC50 Category (converted)) [nM] | Structure (SMILES) | IC50 ([1]; pIC50 Category, competition with 20 nM GIP-057, 4° C., 1 hour) [nM]
10 to 79.4 | A (t1/2 values>15 min) | < 1 | – | CC[C@H](C)[C@@H]1NC(=O)[C@H](CC(C)C)NC(=O)C2(CCN(C(=O)[C@H](CCC(=O)NC[C@H](O)[C@@H](O)[C@H](O)[C@H](O)CO)NC(=O)CN3CCN(CC(=O)O)CCN(CC(=O)O)CCN(CC(=O)O)CC3)CC2)NC(=O)[C@@H](NC(=O)[C@@H](CC(C)C)NC(=O)[C@H](CCC(=O)O)NC(=O)[C@@H]2C[C@@H](NC(=O)CCCC(=O)NC[C@H](O)[C@@H](O)[C@H](O)[C@H](O)CO)CN2C(=O)[C@H](Cc2c[nH]c3ccc(Cl)cc23)NC(=O)[C@H](Cc2c[nH]c3ccccc23)NC(=O)[C@H](CC(=O)O)NC(=O)CN2CCC(NC(=O)CCCC(=O)NC[C@H](O)[C@@H](O)[C@H](O)[C@H](O)CO)CC2)CSCc2cccc(n2)CSC[C@@H](C(=O)NC2CCN(CC(=O)N[C@H](CCC(=O)NC[C@H](O)[C@@H](O)[C@H](O)[C@H](O)CO)C(N)=O)CC2)NC1=O [GIP-007, AGLU-Glutar-APAc-Asp-Trp-5Clw-Tap(AGLU-Glutar)-Glu-leu-[Cys(2Lut)-Apc(DOTA-glu(AGLU))-Leu-Ile-Cys]-APAc-glu(AGLU)-NH2] ({NH(1-deoxy-D-glucityl)-Glutaryl}-[X1]DW[Trp(5-Cl)][Pro(trans-4-NH2)]([Glutaryl-NH(1-deoxy-D-glucityl)])E[dL]C[Api](X2)LIC[X1][dE](NH(1-deoxy-D-glucityl))-NH2; linker 8-12 via Pyridine(2,6-diCH2)) | –
< 10 | A (t1/2 values>15 min) | < 1 | – | CC[C@H](C)[C@@H]1NC(=O)[C@H](CC(C)C)NC(=O)C2(CCOCC2)NC(=O)[C@@H](NC(=O)[C@@H](CC(C)C)NC(=O)[C@H](CCC(=O)O)NC(=O)[C@@H]2C[C@@H](O)CN2C(=O)[C@H](Cc2c[nH]c3ccc(Cl)cc23)NC(=O)[C@H](Cc2c[nH]c3ccccc23)NC(=O)[C@H](CC(=O)O)NC(=O)CN2CCC(NC(=O)CN3CCN(CC(=O)O)CCN(CC(=O)O)CCN(CC(=O)O)CC3)CC2)CSCc2cccc(n2)CSCCNC1=O [GIP-103, DOTA-APAc-Asp-Trp-5Clw-Hyp-Glu-leu-[Cys(2Lut)-Thp-Leu-Ile-AET]] ({DOTA}-[X1]DW[Trp(5-Cl)][Hyp]E[dL]C[Thp]LI; linker 8-C via X6) | –
< 10 | A (t1/2 values>15 min) | < 1 | – | CC[C@H](C)[C@@H]1NC(=O)[C@H](CC(C)C)NC(=O)C2(CCN(C(=O)CN3CCN(CC(=O)O)CCN(CC(=O)O)CCN(CC(=O)O)CC3)CC2)NC(=O)[C@@H](NC(=O)[C@@H](CC(C)C)NC(=O)[C@H](CCC(=O)O)NC(=O)[C@@H]2C[C@@H](O)CN2C(=O)[C@H](Cc2c[nH]c3ccc(Cl)cc23)NC(=O)[C@H](Cc2c[nH]c3ccccc23)NC(=O)CCC(=O)O)CSCc2cccc(n2)CSCCNC1=O [GIP-110, HO-Succinyl-Trp-5Clw-Hyp-Glu-leu-[Cys(2Lut)-Apc(DOTA)-Leu-Ile-AET]] (Suc-W[Trp(5-Cl)][Hyp]E[dL]C[Api](DOTA)LI; linker 6-C via X6) | –
– | A (t1/2 values>15 min) | 1 to 7.94 | 10 to 79.4 | CC[C@H](C)[C@@H]1NC(=O)[C@H](CC(C)C)NC(=O)C2(CCOCC2)NC(=O)[C@@H](NC(=O)[C@@H](CC(C)C)NC(=O)[C@H](CCCCNC(=N)N)NC(=O)[C@@H]2C[C@@H](O)CN2C(=O)[C@H](Cc2c[nH]c3ccc(Cl)cc23)NC(=O)[C@H](Cc2c[nH]c3ccccc23)NC(=O)[C@H](CC(=O)O)NC(C)=O)CSCc2cccc(n2)CSC[C@@H](C(N)=O)NC1=O [GIP-395, Ac-Asp-Trp-5Clw-Hyp-Har-leu-[Cys(2Lut)-Thp-Leu-Ile-Cys]-NH2] (Ac-DW[Trp(5-Cl)][Hyp][hArg][dL]C[Thp]LIC-NH2; linker 7-11 via Pyridine(2,6-diCH2)) | –

Structure (SMILES) | IC50 [1, 3] [nM] | t1/2 Category [2] | Kd [2] [nM] | IC50 ([1]; competition with 20 nM GIP-057, 4° C. for 1 hour, read-out: pIC50 Category (converted)) [nM] | IC50 ([1]; pIC50 Category, competition with 20 nM GIP-057, 4° C., 1 hour) [nM]
CC[C@H](C)[C@@H]1NC(=O)[C@H](CC(C)C)NC(=O)C2(CCN(C(=O)CN3CCN4CCN5CCN(CC3)CC(=O)[O][In]([O]C(=O)C5)[O]C(=O)C4)CC2)NC(=O)[C@@H](NC(=O)[C@@H](CC(C)C)NC(=O)[C@H](CCC(=O)O)NC(=O)[C@@H]2C[C@@H](O)CN2C(=O)[C@H](Cc2c[nH]c3ccc(Cl)cc23)NC(=O)[C@H](Cc2c[nH]c3ccccc23)NC(=O)CCC(=O)O)CSCc2cccc(n2)CSCCNC1=O [GIP-169, HO-Succinyl-Trp-5Clw-Hyp-Glu-leu-[Cys(2Lut)-Apc(InDOTA)-Leu-Ile-AET]] (Suc-W[Trp(5-Cl)][Hyp]E[dL]C[Api](DOTA(In))LI; linker 6-C via X6) | – | – | < 1 | – | < 10
